The values that follow are results of earlier work, collected in patent publication US9833411B2, “Solid oral dosage forms” (Enteris Biopharma, Inc., priority 2015, dated 2017).

For data set [1], the system named is Methicillin-Resistant Staphylococcus aureus (MRSA), Stenotrophomonas maltophilia, Haemophilus influenzae, and Neisseria gonorrhoeae. The following applies: values reported.
The conditions of data set [2]: known formulations.

In brackets after ≈: the same amount, converted by molar mass.

On to `CN(C)c1cc(NC(=O)CNC(C)(C)C)c(O)c2c1C[C@H]1C[C@H]3[C@H](N(C)C)C(O)=C(C(N)=O)C(=O)[C@@]3(O)C(O)=C1C2=O` [Tigecycline], for which the aqueous solubility result is reported as “approximately 300 mg/mL”. The MIC in data set [1] was 2 µg/mL (≈ 3.41 µM). For the same molecule, the “maximal oral bioavailability % (% F)” value in data set [2] was “less than 5%”.
